Each compound was assayed against T1, human vasopressin V2 receptor subtype (Homo sapiens, UniProt P30518) (assay: Vasopressin binding in Chinese Hamster Ovary cell membranes expressing human vasopressin V2 subtype receptors). Conditions: 100 nM, CHO cell membranes, [3H]arginine vasopressin, values without parentheses.
T1 construct: host or cells: CHO cells (pZeoSV vector)
T1 sequence (P30518 whole entry): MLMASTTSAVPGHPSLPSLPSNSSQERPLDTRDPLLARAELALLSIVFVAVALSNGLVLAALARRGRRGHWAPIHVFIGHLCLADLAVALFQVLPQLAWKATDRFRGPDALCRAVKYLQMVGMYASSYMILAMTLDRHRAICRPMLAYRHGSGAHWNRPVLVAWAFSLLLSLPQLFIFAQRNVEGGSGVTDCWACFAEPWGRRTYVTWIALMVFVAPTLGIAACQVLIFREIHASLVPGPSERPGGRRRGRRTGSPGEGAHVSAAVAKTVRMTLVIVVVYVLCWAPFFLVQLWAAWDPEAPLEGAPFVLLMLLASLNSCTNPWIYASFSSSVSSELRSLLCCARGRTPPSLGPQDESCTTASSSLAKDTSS
Procedure, shortened: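 Radioligand displacement on membranes from CHO cells stably expressing human V2 receptor, 25 to 50 μg protein/well, in 50 mM Tris-HCl pH 7.4 with MgCl2, BSA and protease inhibitors. [^3H]arginine vasopressin (8 nM working solution) incubated 60 min at room temperature; bound label measured by filtration and scintillation counting.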
`COc1ccccc1-c1ccc(C(=O)N2Cc3ccc(C(=O)N4CCN(CCN(C)C)CC4)n3Cc3ccccc32)cc1OC` [Example 204, {10-[(2,2′-Dimethoxy[1,1′-biphenyl]-4-yl)carbonyl]-10,11-dihydro-5H-pyrrolo[2,1-c][1,4]benzodiazepin-3-yl}{4-[2-(dimethylamino)ethyl]-1-piperazinyl}methanone] was tested, and the inhibition at 0.1 µM was 6%. `COc1cc(-c2ccccc2C)c(Cl)cc1C(=O)N1Cc2ccc(C(=O)N(C)C3CCN(C)CC3)n2Cc2ccccc21` [Example 180, 10-[(6-Chloro-3-methoxy-2′-methyl[1,1′-biphenyl]-4-yl)carbonyl]-N-methyl-N-(1-methyl-4-piperidinyl)-10,11-dihydro-5H-pyrrolo[2,1-c][1,4]benzodiazepine-3-carboxamide] was tested, and the inhibition at 0.1 µM was 14%. `C=CCN1CCN(C(=O)c2ccc3n2Cc2ccccc2N(C(=O)c2ccc(-c4ccccc4C)cc2)C3)CC1` [Example 224, (4-Allyl-1-piperazinyl){10-[(2′-methyl[1,1′-biphenyl]-4-yl)carbonyl]-10,11-dihydro-5H -pyrrolo[2,1-c][1,4]benzodiazepin-3-yl}methanone] gave an inhibition at 0.1 µM of 7%. Work on `COc1cc(-c2ccccc2C)c(Cl)cc1C(=O)N1Cc2ccc(C(=O)N(C)C3CCN(C)C3)n2Cc2ccccc21` (stereo not shown) [Example 190, 10-[(6-Chloro-3-methoxy-2′-methyl[1,1′-biphenyl]-4-yl)carbonyl]-N-methyl-N-(1-methyl-3-pyrrolidinyl)-10,11-dihydro-5H-pyrrolo[2,1-c][1,4]benzodiazepine-3-carboxamide] yielded an inhibition at 0.1 µM of 9%. Compound `Cc1cc(C(=O)N2Cc3ccc(C(=O)N4CCN(C(C)C)CC4)n3Cc3ccccc32)ccc1-c1ccccc1C(F)(F)F` [Example 240, (4-Isopropyl-1-piperazinyl)(10-{[2-methyl-2′-(trifluoromethyl)[1,1′-biphenyl]-4-yl]carbonyl}-10,11-dihydro-5H-pyrrolo[2,1-c][1,4]benzodiazepin-3-yl)methanone] has an inhibition at 0.1 µM of 9%. `C=CCN1CCN(C(=O)c2ccc3n2Cc2ccccc2N(C(=O)c2ccc(-c4cccc5ccccc45)c(OC)c2)C3)CC1` [Example 231, (4-Allyl-1-piperazinyl){10-[3-methoxy-4-(1-naphthyl)benzoyl]-10,11-dihydro-5H -pyrrolo[2,1-c][1,4]benzodiazepin-3-yl}methanone] was tested, and the inhibition at 0.1 µM was -5%. `Cc1cc(C(=O)N2Cc3ccc(C(=O)NCCN4CCCCC4)n3Cc3ccccc32)ccc1-c1ccccc1C(F)(F)F` [Example 161, 10-{[2-Methyl-2′-(trifluoromethyl)[1,1′-biphenyl]-4-yl]carbonyl}-N-[2-(1-piperidinyl)ethyl]-10,11-dihydro-5H-pyrrolo[2,1-c][1,4]benzodiazepine-3-carboxamide] gave an inhibition at 0.1 µM of 4%. Work on `COc1cccc(-c2cc(OC)c(C(=O)N3Cc4ccc(C(=O)N5CCN(CCN(C)C)CC5)n4Cc4ccccc43)cc2Cl)c1` [Example 202, {10-[(6-Chloro-3,3′-dimethoxy[1,1′-biphenyl]-4-yl)carbonyl]-10,11-dihydro-5H-pyrrolo[2,1-c][1,4]benzodiazepin-3-yl}{4-[2-(dimethylamino)ethyl]-1-piperazinyl}methanone] yielded an inhibition at 0.1 µM of 8%. Compound `COc1cccc(-c2ccc(C(=O)N3Cc4ccc(C(=O)N(C)C5CCN(C)C5)n4Cc4ccccc43)cc2C)c1` (stereo not shown) [Example 186, 10-[(3′-Methoxy-2-methyl[1,1′-biphenyl]-4-yl)carbonyl]-N-methyl-N-(1-methyl-3-pyrrolidinyl)-10,11-dihydro-5H-pyrrolo[2,1-c][1,4]benzodiazepine-3-carboxamide] has an inhibition at 0.1 µM of 8%. Compound `COc1cccc(-c2ccc(C(=O)N3Cc4ccc(C(=O)N5CCN(CCN6CCOCC6)CC5)n4Cc4ccccc43)cc2OC)c1` [Example 211, {10-[(2,3′-Dimethoxy[1,1′-biphenyl]-4-yl)carbonyl]-10,11-dihydro-5H-pyrrolo[2,1-c][1,4]benzodiazepin-3-yl}{4-[2-(4-morpholinyl)ethyl]-1-piperazinyl}methanone] has an inhibition at 0.1 µM of 23%. Work on `C=CCN1CCN(C(=O)c2ccc3n2Cc2ccccc2N(C(=O)c2ccc(-c4ccccc4C)c(OC)c2)C3)CC1` [Example 225, (4-Allyl-1-piperazinyl){10-[(2-methoxy-2′-methyl[1,1′-biphenyl]-4-yl)carbonyl]-10,11-dihydro-5H-pyrrolo[2,1-c][1,4]benzodiazepin-3-yl}methanone] yielded an inhibition at 0.1 µM of -4%. In the case of `COc1cccc(-c2ccc(C(=O)N3Cc4ccc(C(=O)N(C)C5CCN(C)CC5)n4Cc4ccccc43)cc2C)c1` [Example 176, 10-[(3′-Methoxy-2-methyl[1,1′-biphenyl]-4-yl)carbonyl]-N-methyl-N-(1-methyl-4-piperidinyl)-10,11-dihydro-5H-pyrrolo[2,1-c][1,4]benzodiazepine-3-carboxamide], the inhibition at 0.1 µM is reported as 18%. `C=CCN1CCN(C(=O)c2ccc3n2Cc2ccccc2N(C(=O)c2ccc(-c4cccc5ccccc45)cc2Cl)C3)CC1` [Example 229, (4-Allyl-1-piperazinyl){10-[2-chloro-4-(1-naphthyl)benzoyl]-10,11-dihydro-5H-pyrrolo[2,1-c][1,4]benzodiazepin-3-yl}methanone] was tested, and the inhibition at 0.1 µM was 27%. `Cc1cc(C(=O)N2Cc3ccc(C(=O)N4CCN(CCN5CCOCC5)CC4)n3Cc3ccccc32)ccc1-c1ccccc1C(F)(F)F` [Example 216, (10-{[2-Methyl-2′-(trifluoromethyl)[1,1′-biphenyl]-4-yl]carbonyl}-10,11-dihydro-5H -pyrrolo[2,1-c][1,4]benzodiazepin-3-yl){4-[2-(4-morpholinyl)ethyl]-1-piperazinyl}methanone] showed an inhibition at 0.1 µM of 0%. `COc1ccccc1-c1ccc(C(=O)N2Cc3ccc(C(=O)N4CCN(C(C)C)CC4)n3Cc3ccccc32)cc1C` [Example 232, (4-Isopropyl-1-piperazinyl){10-[(2′-methoxy-2-methyl[1,1′-biphenyl]-4-yl)carbonyl]-10,11-dihydro-5H-pyrrolo[2,1-c][1,4]benzodiazepin-3-yl}methanone] gave an inhibition at 0.1 µM of 4%. For `O=C(c1ccc2n1Cc1ccccc1N(C(=O)c1ccc(-c3cccc4ccccc34)cc1Cl)C2)N1CCN(CCN2CCOCC2)CC1` [Example 215, {10-[2-Chloro-4-(1-naphthyl)benzoyl]-10,11-dihydro-5H-pyrrolo[2,1-c][1,4]benzodiazepin-3-yl}{4-[2-(4-morpholinyl)ethyl]-1-piperazinyl}methanone], the inhibition at 0.1 µM was 22%. With `COc1cc(-c2ccccc2C)c(Cl)cc1C(=O)N1Cc2ccc(C(=O)N3CCN(C(C)C)CC3)n2Cc2ccccc21` [Example 238, {10-[(6-Chloro-3-methoxy-2′-methyl[1,1′-biphenyl]-4-yl)carbonyl]-10,11-dihydro-5H -pyrrolo[2,1-c][1,4]benzodiazepin-3-yl}(4-isopropyl-1-piperazinyl)methanone] the inhibition at 0.1 µM was 27%. Compound `C=CCN1CCN(C(=O)c2ccc3n2Cc2ccccc2N(C(=O)c2ccc(-c4cccc(OC)c4)c(OC)c2)C3)CC1` [Example 228, (4-Allyl-1-piperazinyl){10-[(2,3′-dimethoxy[1,1′-biphenyl]-4-yl)carbonyl]-10,11-dihydro-5H -pyrrolo[2,1-c][1,4]benzodiazepin-3-yl}methanone] has an inhibition at 0.1 µM of 20%. Compound `Cc1ccccc1-c1ccc(C(=O)N2Cc3ccc(C(=O)N4CCN(CCN5CCOCC5)CC4)n3Cc3ccccc32)cc1C` [Example 218, {10-[(2,2′-Dimethyl[1,1′-biphenyl]-4-yl)carbonyl]-10,11-dihydro-5H-pyrrolo[2,1-c][1,4]benzodiazepin-3-yl}{4-[2-(4-morpholinyl)ethyl]-1-piperazinyl}methanone] has an inhibition at 0.1 µM of 23%. `Cc1cc(C(=O)N2Cc3ccc(C(=O)N(C)C4CCN(C)C4)n3Cc3ccccc32)ccc1-c1ccccc1C(F)(F)F` (stereo not shown) [Example 194, N-Methyl-N-(1-methyl-3-pyrrolidinyl)-10-{[2-methyl-2′-(trifluoromethyl)[1,1′-biphenyl]-4-yl]carbonyl}-10,11-dihydro-5H-pyrrolo[2,1-c][1,4]benzodiazepine-3-carboxamide] was tested, and the inhibition at 0.1 µM was 0%. `COc1ccccc1-c1ccc(C(=O)N2Cc3ccc(C(=O)NCCC4CCCN4C)n3Cc3ccccc32)cc1` (stereo not shown) [Example 165, 10-[(2′-Methoxy[1,1′-biphenyl]-4-yl)carbonyl]-N-[2-(1-methyl-2-pyrrolidinyl)ethyl]-10,11-dihydro-5H-pyrrolo[2,1-c][1,4]benzodiazepine-3-carboxamide] was tested, and the inhibition at 0.1 µM was 25%. Work on `COc1cccc(-c2cc(OC)c(C(=O)N3Cc4ccc(C(=O)N(C)C5CCN(C)C5)n4Cc4ccccc43)cc2Cl)c1` (stereo not shown) [Example 191, 10-[(6-Chloro-3,3′-dimethoxy[1,1′-biphenyl]-4-yl)carbonyl]-N-methyl-N-(1-methyl-3-pyrrolidinyl)-10,11-dihydro-5H-pyrrolo[2,1-c][1,4]benzodiazepine-3-carboxamide] yielded an inhibition at 0.1 µM of 17%. With `O=C(NCCN1CCCCC1)c1ccc2n1Cc1ccccc1N(C(=O)c1ccc(-c3cccc4ccccc34)cc1Cl)C2` [Example 160, 10-[2-Chloro-4-(1-naphthyl)benzoyl]-N-[2-(1-piperidinyl)ethyl]-10,11-dihydro-5H-pyrrolo[2,1-c][1,4]benzodiazepine-3-carboxamide] the inhibition at 0.1 µM was 24%. `COc1cc(C(=O)N2Cc3ccc(C(=O)N(C)C4CCN(C)CC4)n3Cc3ccccc32)ccc1-c1cccc2ccccc12` [Example 182, 10-[3-Methoxy-4-(1-naphthyl)benzoyl]-N-methyl-N-(1-methyl-4-piperidinyl)-10,11-dihydro-5H-pyrrolo[2,1-c][1,4]benzodiazepine-3-carboxamide] gave an inhibition at 0.1 µM of 35%. Work on `C=CCN1CCN(C(=O)c2ccc3n2Cc2ccccc2N(C(=O)c2ccc(-c4cccc(OC)c4)c(C)c2)C3)CC1` [Example 223, (4-Allyl-1-piperazinyl){10-[(3′-methoxy-2-methyl[1,1′-biphenyl]-4-yl)carbonyl]-10,11-dihydro-5H-pyrrolo[2,1-c][1,4]benzodiazepin-3-yl}methanone] yielded an inhibition at 0.1 µM of 13%.
